{"source": "patent EP0008888A1", "about": "“Beta-lactam antibacterial compounds, their preparation and pharmaceutical compositions containing them” (BEECHAM GROUP PLC, priority 1978, dated 1980)", "key": {"[1]": {"assay": "Solution stability of an aqueous solution (uv spectrum)", "format": "physicochemical", "details": "aqueous solution (ca 2 mg ml^-1) stored at 5° for 2 months"}, "[2]": {"tested_on": "Salmonella typhimurium CT10", "assay": "Antibacterial activity (MIC)", "format": "cell-based"}, "[3]": {"tested_on": "Streptococcus pneumoniae CN33", "assay": "Antibacterial activity (MIC)", "format": "cell-based"}, "[4]": {"tested_on": "Escherichia coli 0111", "assay": "Antibacterial activity (MIC)", "format": "cell-based"}, "[5]": {"tested_on": "Klebsiella aerogenes A", "assay": "Antibacterial activity (MIC)", "format": "cell-based"}, "[6]": {"tested_on": "Staphylococcus aureus Oxford", "assay": "Antibacterial activity (MIC)", "format": "cell-based"}, "[7]": {"tested_on": "Bacillus subtilis ATCC 6633", "assay": "Antibacterial activity (MIC)", "format": "cell-based"}, "[8]": {"tested_on": "Shigella sonnei MB11967", "assay": "Antibacterial activity (MIC)", "format": "cell-based"}, "[9]": {"tested_on": "Escherichia coli ATCC 27166", "assay": "Antibacterial activity (MIC)", "format": "cell-based"}, "[10]": {"tested_on": "Streptococcus pyogenes CN10", "assay": "Antibacterial activity (MIC)", "format": "cell-based"}, "[11]": {"tested_on": "Citrobacter freundii E8", "assay": "Antibacterial activity (MIC)", "format": "cell-based"}, "[12]": {"tested_on": "Escherichia coli NCTC 10418", "assay": "Antibacterial activity (MIC)", "format": "cell-based"}, "[13]": {"tested_on": "Branhamella catarrhalis 1502", "assay": "Antibacterial activity (MIC)", "format": "cell-based"}, "[14]": {"tested_on": "Escherichia coli ESS", "assay": "Antibacterial activity (MIC)", "format": "cell-based"}, "[15]": {"tested_on": "Staphylococcus aureus Russell", "assay": "MIC in a standard test", "format": "cell-based"}, "[16]": {"tested_on": "Escherichia coli JT39", "assay": "MIC in a standard test", "format": "cell-based", "details": "standard test; Escherichia coli JT39; read-out: MIC"}, "[17]": {"tested_on": "Klebsiella aerogenes A", "assay": "MIC in a standard test", "format": "cell-based"}, "[18]": {"tested_on": "Escherichia coli 0111", "assay": "MIC in a standard test", "format": "cell-based"}, "[19]": {"tested_on": "Pseudomonas aeruginosa A", "assay": "MIC in a standard test", "format": "cell-based"}, "[20]": {"tested_on": "Proteus mirabilis C977", "assay": "MIC in a standard test", "format": "cell-based"}, "[21]": {"tested_on": "Bacillus subtilis A", "assay": "MIC in a standard test", "format": "cell-based"}, "[22]": {"tested_on": "Streptococcus pneumoniae CN33", "assay": "MIC in a standard test", "format": "cell-based"}, "[23]": {"tested_on": "Proteus morganii I580", "assay": "MIC in a standard test", "format": "cell-based", "details": "Morganella morganii"}, "[24]": {"tested_on": "Proteus vulgaris WO91", "assay": "MIC in a standard test", "format": "cell-based"}, "[25]": {"tested_on": "Shigella sonnei MB 11967", "assay": "MIC in a standard test", "format": "cell-based", "details": "MB11967"}, "[26]": {"tested_on": "Staphylococcus aureus Oxford", "assay": "MIC in a standard test", "format": "cell-based"}, "[27]": {"tested_on": "Staphylococcus aureus 1517", "assay": "MIC in a standard test", "format": "cell-based"}, "[28]": {"tested_on": "Streptococcus pyogenes CN10", "assay": "MIC in a standard test", "format": "cell-based"}, "[29]": {"tested_on": "Enterobacter cloacoae N1", "assay": "MIC in a standard test", "format": "cell-based"}, "[30]": {"tested_on": "Streptococcus faecalis I", "assay": "MIC in a standard test", "format": "cell-based", "details": "Enterococcus faecalis"}, "[31]": {"tested_on": "Citrobacter freundii E8", "assay": "MIC in a standard test", "format": "cell-based"}, "[32]": {"tested_on": "Serratia marcescens US20", "assay": "MIC in a standard test", "format": "cell-based"}, "[33]": {"tested_on": "Proteus rettgeri WM16", "assay": "MIC in a standard test", "format": "cell-based", "details": "Providencia rettgeri"}, "[34]": {"tested_on": "Salmonella typhimurium CT10", "assay": "MIC in a standard test", "format": "cell-based", "details": "Salmonella enterica"}, "[35]": {"details": "Salmonella enterica, TYPHIMURIUM, read-out: MIC"}, "[36]": {"details": "Escherichia coli, 0111, Escherichia coli 0111, read-out: MIC"}, "[37]": {"details": "Klebsiella aerogenes, read-out: MIC"}, "[38]": {"details": "Bacillus subtilis, ATCC6633, Bacillus subtilis ATCC 6633, read-out: MIC"}, "[39]": {"details": "Shigella sonnei, MB11967, Shigella sonnei MB11967, read-out: MIC"}, "[40]": {"details": "Escherichia coli, ATCC27166, Escherichia coli ATCC 27166, read-out: MIC"}, "[41]": {"details": "Citrobacter freundii, E8, Citrobacter freundii E8, read-out: MIC"}, "[42]": {"details": "Escherichia coli, NCTC10418, Escherichia coli NCTC 10418, read-out: MIC"}}, "note": "Like-named read-outs stand apart in the source and are kept apart here.", "data": [{"smiles": "CCSC1=C(C(=O)[O-])N2C(=O)C(CC)C2C1.[Na+]", "note": "(stereo not drawn)", "values": [{"measurement": "solution stability", "setting": "[1]", "value": "without deterioration"}]}, {"smiles": "CCSC1=C(C(=O)OCc2ccc([N+](=O)[O-])cc2)N2C(=O)CC2C1", "note": "(racemic) [(±), p-Nitrobenzyl 3-ethylthio-7-oxo-1-azabicyclo [3,2,0]hept-2-ene-2-carboxylate]", "values": [{"measurement": "MIC", "setting": "[2]; [35]", "value": 50, "unit": "µg/mL"}, {"measurement": "MIC", "setting": "[3]; Streptococcus pneumoniae, CN33, Streptococcus pneumoniae CN33, read-out: MIC", "value": 1.2, "unit": "µg/mL"}, {"measurement": "MIC", "setting": "[4]; [36]", "value": "> 50", "unit": "µg/mL"}, {"measurement": "MIC", "setting": "[5]; [37]", "value": 25, "unit": "µg/mL"}, {"measurement": "MIC", "setting": "[6]; read-out: MIC", "value": "> 50", "unit": "µg/mL"}, {"measurement": "MIC", "setting": "[7]; [38]", "value": 25, "unit": "µg/mL"}, {"measurement": "MIC", "setting": "[8]; [39]", "value": "> 50", "unit": "µg/mL"}, {"measurement": "MIC", "setting": "[9]; [40]", "value": 12.5, "unit": "µg/mL"}, {"measurement": "MIC", "setting": "[10]; Streptococcus pyogenes, CN10, Streptococcus pyogenes CN10, read-out: MIC", "value": 1.2, "unit": "µg/mL"}, {"measurement": "MIC", "setting": "[11]; [41]", "value": 50, "unit": "µg/mL"}, {"measurement": "MIC", "setting": "[12]; [42]", "value": 50, "unit": "µg/mL"}, {"measurement": "MIC", "setting": "[13]; Moraxella catarrhalis, 1502, Branhamella catarrhalis 1502, read-out: MIC", "value": 1.2, "unit": "µg/mL"}, {"measurement": "MIC", "setting": "[14]; Escherichia coli, read-out: MIC", "value": 12.5, "unit": "µg/mL"}]}, {"smiles": "CCSC1=C(C(=O)OCc2ccc([N+](=O)[O-])cc2)N2C(=O)CC2C1", "note": "(single isomer, unassigned; (+)) [(+), (+) p-Nitrobenzyl 3-ethylthio-7-oxo-1-azabicyclo[3.2.0] hept-2-ene-2-carboxylate]", "values": [{"measurement": "MIC", "setting": "[2]", "value": 50, "unit": "µg/mL"}, {"measurement": "MIC", "setting": "[3]; Streptococcus pneumoniae CN33", "value": 0.5, "unit": "µg/mL"}, {"measurement": "MIC", "setting": "[4]; Escherichia coli 0111", "value": 50, "unit": "µg/mL"}, {"measurement": "MIC", "setting": "[5]", "value": 12.5, "unit": "µg/mL"}, {"measurement": "MIC", "setting": "[6]", "value": ">50", "unit": "µg/mL"}, {"measurement": "MIC", "setting": "[7]; Bacillus subtilis ATCC 6633", "value": 25, "unit": "µg/mL"}, {"measurement": "MIC", "setting": "[8]; Shigella sonnei MB11967", "value": 50, "unit": "µg/mL"}, {"measurement": "MIC", "setting": "[9]; Escherichia coli ATCC 27166", "value": 12.5, "unit": "µg/mL"}, {"measurement": "MIC", "setting": "[10]; Streptococcus pyogenes CN10", "value": 1.2, "unit": "µg/mL"}, {"measurement": "MIC", "setting": "[11]; Citrobacter freundii E8", "value": 25, "unit": "µg/mL"}, {"measurement": "MIC", "setting": "[12]; Escherichia coli NCTC 10418", "value": 25, "unit": "µg/mL"}, {"measurement": "MIC", "setting": "[13]; Branhamella catarrhalis 1502", "value": 0.5, "unit": "µg/mL"}, {"measurement": "MIC", "setting": "[14]", "value": 5.0, "unit": "µg/mL"}]}, {"smiles": "CCSC1=C(C(=O)OCc2ccc([N+](=O)[O-])cc2)N2C(=O)CC2C1", "note": "(single isomer, unassigned; (-)) [(-), (-) p-Nitrobenzyl 3-ethylthio-7-oxo-1-azabicyclo[3.2.0] hept-2-ene-2-carboxylate]", "values": [{"measurement": "MIC", "setting": "[2]; [35]", "value": "> 50", "unit": "µg/mL"}, {"measurement": "MIC", "setting": "[3]; Streptococcus pneumoniae CN33", "value": 2.5, "unit": "µg/mL"}, {"measurement": "MIC", "setting": "[4]; [36]", "value": "> 50", "unit": "µg/mL"}, {"measurement": "MIC", "setting": "[5]; [37]", "value": 25, "unit": "µg/mL"}, {"measurement": "MIC", "setting": "[6]; read-out: MIC", "value": "> 50", "unit": "µg/mL"}, {"measurement": "MIC", "setting": "[7]; [38]", "value": 50, "unit": "µg/mL"}, {"measurement": "MIC", "setting": "[8]; [39]", "value": "> 50", "unit": "µg/mL"}, {"measurement": "MIC", "setting": "[9]; [40]", "value": 25, "unit": "µg/mL"}, {"measurement": "MIC", "setting": "[10]; Streptococcus pyogenes CN10", "value": 2.5, "unit": "µg/mL"}, {"measurement": "MIC", "setting": "[11]; [41]", "value": "> 50", "unit": "µg/mL"}, {"measurement": "MIC", "setting": "[12]; [42]", "value": "> 50", "unit": "µg/mL"}, {"measurement": "MIC", "setting": "[13]; Branhamella catarrhalis 1502", "value": 2.5, "unit": "µg/mL"}, {"measurement": "MIC", "setting": "[14]", "value": 25, "unit": "µg/mL"}]}, {"smiles": "CCSC1=C(C(=O)OC2OC(=O)c3ccccc32)N2C(=O)[C@@H](CC)[C@H]2C1", "note": "(stereo partly drawn) [Example 75, Phthalidyl 6β-ethyl - 3-ethylthio - 7 - oxo - 1 - azabicyclo [3.2.0] hept - 2 - ene - 2-carboxylate]", "values": [{"measurement": "MIC", "setting": "[15]", "value": 12.5, "unit": "µg/mL"}, {"measurement": "MIC", "setting": "[16]", "value": 50, "unit": "µg/mL"}, {"measurement": "MIC", "setting": "[17]", "value": 25, "unit": "µg/mL"}, {"measurement": "MIC", "setting": "[18]", "value": 25, "unit": "µg/mL"}, {"measurement": "MIC", "setting": "[19]", "value": "> 50", "unit": "µg/mL"}, {"measurement": "MIC", "setting": "[20]", "value": 25, "unit": "µg/mL"}, {"measurement": "MIC", "setting": "[21]", "value": 5, "unit": "µg/mL"}, {"measurement": "MIC", "setting": "[22]", "value": 1.2, "unit": "µg/mL"}, {"measurement": "MIC", "setting": "[23]", "value": 25, "unit": "µg/mL"}, {"measurement": "MIC", "setting": "[24]", "value": 50, "unit": "µg/mL"}, {"measurement": "MIC", "setting": "[25]", "value": 12.5, "unit": "µg/mL"}, {"measurement": "MIC", "setting": "[26]", "value": 5, "unit": "µg/mL"}, {"measurement": "MIC", "setting": "[27]", "value": "> 50", "unit": "µg/mL"}, {"measurement": "MIC", "setting": "[28]", "value": 5, "unit": "µg/mL"}, {"measurement": "MIC", "setting": "[29]", "value": 12.5, "unit": "µg/mL"}, {"measurement": "MIC", "setting": "[30]", "value": "> 50", "unit": "µg/mL"}, {"measurement": "MIC", "setting": "[31]", "value": 25, "unit": "µg/mL"}, {"measurement": "MIC", "setting": "[32]", "value": 50, "unit": "µg/mL"}, {"measurement": "MIC", "setting": "[33]", "value": 25, "unit": "µg/mL"}, {"measurement": "MIC", "setting": "[34]", "value": 12.5, "unit": "µg/mL"}]}]}
